Consider two compounds from patent US4775743A, “Peptide derivatives” (Green Cross Corporation, priority 1985, dated 1988).

Square brackets hold non-standard residues; d marks the D form. Ends that are not written are not given here. Peptide text beside a SMILES is read from it. * marks the point of attachment. Desaminotyrosyl = O=C(CCc1ccc(O)cc1)*; Hyp = O=C(O)[C@@H]1C[C@@H](O)CN1

Data set [1] relates to rat PRP (platelet-rich plasma) / rat washed platelets. The data set is described as follows: Platelet agglutination inhibitory action (in vitro). As to conditions: agglutination induced by arachidonic acid (1 mM), thrombin (0.8 U/ml) or Ca ionophore A-23187 (4 μM), FIGS. 1, 2 and 3. It is filed as cell-based. As for the experimental part:
Blood samples were taken from the abdominal artery of rats by means of a syringe containing 3.8% solution of sodium citrate, and the mixture (sodium citrate:blood=1:9) was centrifuged for ten minutes, giving platelet-rich plasma (PRP).
PRP thus collected was placed in cuvettes and kept in an incubator held at 37° C. for two minutes. Solutions of the compound obtained in Example 1 with different concentrations (diluted with a solution of 1.5 mM EDTA in a mixture of Tris-HCl buffer and sodium chloride solution (1:5)) were added, the resulting mixture in each cuvette was incubated for three minutes, and Ca ionophore A-23187 (final concentration: 4 μM), arachidonic acid (1 mM) or thrombin (0.8 U/ml) was added to measure the degree of agglutination. A solution of heparin sodium was used in place of sodium citrate when arachidonic acid was employed as agglutination inducer.

For data set [2] the following is noted: background statement on the prior-art compound; cited from earlier work.

In the case of `C[C@H](NC(=O)CNC(=O)[C@@H]1C[C@@H](O)CN1C(=O)[C@@H]1CCCN1C(=O)CCc1ccc(O)cc1)C(=O)NCC(=O)O` [HP, N-3-(4-hydroxyphenyl)propionyl-L-prolyl-L-hydroxyprolyl-glycyl-L-alanyl-glycine] (Desaminotyrosyl-P[Hyp]GAG-OH), the “strength of inhibitory effect against platelet agglutination relative to compound P (control)” value in data set [1] is recorded as “about ten”.

Consider P[Hyp]GAG [Compound P], for which the “half-life in the blood” value in data set [2] was “about ten”.
